From patent US9199942B2, “Processes for the preparation of pesticidal compounds” (Dow AgroSciences LLC, priority 2013, dated 2015) come the findings set out here.

Each structure is given as a SMILES string. Counter-ions that a name gives are not always drawn. Like-named read-outs stand apart in the source and are kept apart here.

Assay [1] deals with Sweetpotato Whitefly Crawler (Bemisia tabaci) (BEMITA). Briefly: Bioassay on sweetpotato whitefly crawler, foliar spray on infested cotton plants. The format is in vivo. The conditions noted are these: read-out: BEMITA rating (% Control of Mortality). The text has this: Example B Bioassays on Sweetpotato Whitefly Crawler (Bemisia tabaci) (BEMITA.)
Cotton plants grown in 3-inch pots, with 1 small (3-5 cm) true leaf, were used at test substrate. The plants were placed in a room with whitely adults. Adults were allowed to deposit eggs for 2-3 days. After a 2-3 day egg-laying period, plants were taken from the adult whitefly room. Adults were blown off leaves using a hand-held Devilbliss sprayer (23 psi). Plants with egg infestation (100-300 eggs per plant) were placed in a holding room for 5-6 days at 82° F. and 50% RH for egg hatch and crawler stage to develop. Four cotton plants were used for each treatment. Compounds (2 mg) were dissolved in 1 mL of acetone solvent, forming stock solutions of 2000 ppm. The stock solutions were diluted 10× with 0.025% Tween 20 in water to obtain a test solution at 200 ppm. A hand-held Devilbliss sprayer was used for spraying a solution to both sides of cotton leaf until runoff. Reference plants (solvent check) were sprayed with the diluent only. Treated plants were held in a holding room for 8-9 days at approximately 82° F. and 50% RH prior to grading. Evaluation was conducted by counting the number of live nymphs per plant under a microscope.

For assay [2], the system named is Green Peach Aphid (Myzus persicae) (MYZUPE). Briefly: Bioassay on green peach aphid (GPA), foliar spray on infested cabbage seedlings. The format is in vivo. The note with it: 72 h, read-out: MYZUPE rating (% Control of Mortality). As for the experimental part: Example A Bioassays on Green Peach Aphid (“GPA”) (Myzus persicae) (MYZUPE.
Several molecules disclosed herein were tested against GPA using procedures described below.
Cabbage seedling grown in 3-in pots, with 2-3 small (3-5 cm) true leaves, were used as test substrate. The seedlings were infested with […] (wingless adult and nymph stages) one day prior to chemical application. Four posts with individual seedlings were used for each treatment. Test compounds (2 mg) were dissolved in 2 mL of acetone/methanol (1:1) solvent, forming stock solutions of 1000 ppm test compound. The stock solutions were diluted 5× with 0.025% Tween 20 in water to obtain the solution at 200 ppm test compound. A hand-held aspirator-type sprayer was used for spraying a solution to both sides of the cabbage leaves until runoff. Reference plants (solvent check) were sprayed with the diluent only containing 20% by volume acetone/methanol (1:1) solvent. Treated plants were held in a holding room for three days at approximately 25° C. and ambient relative humidity (RH) prior to grading. Evaluation was conducted by counting the number of live aphids per plant under a microscope. Percent Control was measured by using Abbott's correction formula (W. S. Abbott, “A Method of Computing the Effectiveness of an Insecticide” J. Econ. Entomol 18 (1925), pp. 265-267) as follows. Corrected % Control=100*(X−Y)/X • where • X=No. of live aphids on solvent check plants and • Y=No. of live aphids on treated plants
The results are indicated in the table entitled “Table 1: GPA (MYZUPE) and sweetpotato whitefly-crawler (BEMITA) Rating Table”.

Setting [3] is: 200 ppm spray on cotton leaves, live nymphs counted after 8-9 days, Abbott's correction.
The mark [4] stands for this setting: 200 ppm spray on cabbage leaves, live aphids counted after three days, Abbott's correction.

Turning to `O=C(CCCl)Nc1c[nH]nc1Cl` [Compound 4a, 3-chloro-N-(-3-chloro-1H-pyrazol-4-yl) propanamide], the mortality – broadly, the percentage killed – at 200 ppm is 0 to 80% in assay [1] (setting [3]) and below 0% in assay [2] (setting [4]).

`Nc1c[nH]nc1Cl` [Compound 1a, 3-chloro-1H-pyrazol-4-amine hydrochloride]: the mortality at 200 ppm in assay [1] and in assay [2] was 0 to 80% each time.

As for `O=C(CCSCCC(F)(F)F)Nc1c[nH]nc1Cl` [Compound 3.4], the mortality at 200 ppm in assay [1] (setting [3]) and in assay [2] (setting [4]) was 0 to 80% each time.
